The values that follow come from US20220142991A1, “METHODS AND COMPOSITIONS FOR TREATMENT OF L YSOSOMAL STORAGE DISORDER” (CHILDREN'S HOSPITAL MEDICAL CENTER, priority 2019, published 2022).

Assay [1] has as its system 4L;C* mice. Nature of the assay: FACS analysis of microglia and leukocyte populations in brain. The class given is in vivo, mouse. The note with it: brain hemispheres. The source says:
Brain inflammation invariably results in a reshaping of the blood-borne leukocyte populations inhabiting the CNS. To elucidate the changes of resident immune cells (i.e., microglial cells) and infiltrated leukocytes in nGD brain and the effect rapamycin has on activation of immune cells and infiltration, flow cytometry was used to analyze different leukocyte populations in brain parenchyma, including CD45^+ cells, microglia, myeloid, lymphoid, macrophage and T cells. […] The hemispheres of the brain were separated, minced, and digested by incubation with […] collagenase IV for 30 min at 37° C. The resulting cell suspensions were then fractionated by density gradient separation using 25% Percoll® gradients at 520×g for 20 minutes. […] After removing myelin and top suspension layer, pelleted cells collected were then subjected to multicolor (5) fluorescence-activated cell sorting analysis (FACS) by co-staining with multiple antibodies that conjugated with various fluorochromes to identify microglia and subpopulations of leukocytes. FIG. 10A. […] FIG. 10B. […] FIG. 10B. […] FIG. 10B.
The frequency of microglia (CD45^intermediateCD11b^high) was increased in buffer-treated 4L;C* mice (1.9 fold) and decreased in rapamycin-treated 4L;C* mice (1.3-fold), which indicates reduced microgliosis in nGD brain. FIG. 10B. […] FIGS. 10C and 10D.
Background: In flow cytometry, cells or beads pass a laser one at a time.

Another assay has as its system 4L;C* nBMT mice. Nature of the assay: FACS analysis of donor-derived GFP+ migrated cells in brain after nBMT. The class given is in vivo, mouse. As to conditions: 55 days of age. The protocol:
Briefly, mice that express enhanced green fluorescent protein (GFP; C57BL/6 GFP/CD45.1) were used as bone marrow donors. Low-density bone marrow (LDBM) cells were harvested by flushing the hind-leg bones with Dulbecco's modified Eagle's medium (DMEM) containing 2% fetal calf serum (FCS) and 50 U penicillin/0.05 mg/mL streptomycin using a 23 G needle. The cells were passed through a 100 μm cell strainer. LDBM cells were isolated after density gradient centrifugation with Histopaque-1083. Viable cells were counted with trypan blue dye and resuspended in PBS containing 30 U/mL heparin. The recipient pups (˜3 days old of 4L;C or 4L;norm) were subjected to myelosuppressive conditioning with the chemotherapeutic agent busulfan by intraperitoneal injection at 20 mg/kg. Twenty-four hours later, the 4L;C and 4L;norm recipient pups then received about 1×10^6 GPF+ donor cells via injection into super-facial temple vein (nBMT). 4L;C nBMT mice were then given an i.p. injection of rapamycin or buffer every other days starting at 21 days of age. […] Multicolor FACS analysis was conducted as described above to analyze contribution of GFP+ migrated cells in microglia and subpopulations of leukocytes. FIG. 11A. The frequency of donor-derived GFP+ cells among different leukocyte populations in brain parenchyma was quantified, including CD45^+ cells, microglia, myeloid, lymphoid, macrophage and T cells. Table 1. In busulfan-conditioned mice, engraftment of GFP+ microglial cells was increased in 4L;C* mice compared to 4L normal mice, regardless of treatment with buffer or rapamycin. Table 1. […] FIG. 11B.

Assay [2] deals with 4L;C* mice. The experiment in a line: CD68 immunohistochemistry for activated microglia/macrophage in brain and spinal cord. The class given is in vivo, mouse. The source says:
CD68, a classic marker of activated microglia/macrophage (Korzhevskii et al., (2016) Neurosci Behav Physi 46, 284-290), was used to determine CNS inflammation by immunohistochemistry staining. […] FIG. 6A.

In another assay the test system is inflammatory mediators. The experiment in a line: RT-qPCR of inflammatory mediator mRNA in midbrain tissue. The class given is in vivo, mouse. On the procedure:
Vitner et al., (2012) Brain. 135 (Pt 6):1724-35; Dasgupta et al., (2015) Hum Mol Genet. 15; 24(24):7031-48. The highly activated microglia/and astrocyte are the main source of multiple inflammatory mediators in brain. […] The isolated mRNA was subjected to quantitative reverse transcription PCR (RT-qPCR) analysis using oligos directed toward inflammatory mediator genes of interest, including cytokine, chemokine, and inflammation-related receptors. Specifically, RT-qPCR analysis was performed to detect mRNA expression levels of the following genes: tumor necrosis factor (TNF)-alpha, interleukin (IL)-1-beta (IL-1β), IL-6, IL-17A, transforming growth factor beta (TGF-β), chemokine ligand (CCL) 5 (CCL5), CCL2, CCL22 chemokine (C-X-C motif) ligand 2 (CXCL2), intercellular adhesion molecule 1 (ICAM1), tumor necrosis factor receptor 1 (TNFR1), Cluster of Differentiation 86 (CD86), EGF-like module-containing mucin-like hormone receptor-like 1 (F4/80), component 5 (C5), and complement component 5a receptor 1 (C5AR1).

The subject of assay [3] is 4L;C* mice. The experiment in a line: Relative bodyweight in 4L;C* nGD mouse model. The note with it: 6 mg/kg i.p. every 2 days, bodyweight normalized to age 30 days, untreated/buffer Day 52.
Protocol: To assess the effect of rapamycin on nGD, rapamycin (6 mg/kg) was administered to 4L;C* mice by intraperitoneal (i.p.) injection every 2 days starting from 2-weeks of age (4L;C* rapa). […] The lifespan of the mice was monitored daily from 40 days of age until 90 days of age or until death. The Kaplan-Meier method was used to estimate survival probability and a log-rank test was used to compare the Kaplan-Meier survival curves of the four different experimental groups.
Additionally, the bodyweight the mice was measured daily from 20 days of age until 90 days of age or until death. Relative bodyweight curves were normalized by weight value of each animal at the age of 30 days.
In assay [4] the test system is 4L;C* mice. The experiment in a line: Fluoro-Jade C (FJC) staining for degenerating neurons in brain cryosections. The note with it: most brain regions, Day 55, vs buffer-treated 4L;C*.
Protocol: To visualize degenerative neurons in nGD mice, brains were harvested from well-perfused rapamycin treated 4L;C* mice, buffer-treated 4L;C* mice, and 4L normal, untreated mice at age of Day 55. Sagittal brain cryosections (10 μm) were mounted on gelatin-coated slides, air-dried, and subjected to FJC staining. The slides were first immersed in a solution containing 1% NaOH in 80% ethanol for 5 minutes. They were rinsed for 2 minutes in 70% ethanol and for 2 minutes in distilled water, then incubated in 0.06% potassium permanganate solution for 10 minutes. Following a water rinse for 2 minutes, slides were transferred to the FJC staining solution and stained for 10 minutes. The proper dilution was accomplished by first making a 0.01% stock solution of FJC dye (Chemicon, Temecula, Calif., USA) in distilled water and then adding 1 ml of the stock solution to 99 ml of 0.1% acetic acid. Slides were washed three times each for 1 minute and then air-dried on a slide warmer at 50° C. for 30 minutes. After clearing in xylene and coverslipping, sections were examined under an epifluorescence microscope.
Assay [5] relates to 4L;C* mice. The experiment in a line: GFAP immunohistochemistry for activated astrocytes in brain. As to conditions: middle brain, brain stem, Day 55.
Protocol: To visualize reactive astrocytes in nGD mice, immunohistochemistry (IHC) was performed. In brief, brains were harvested from well-perfused rapamycin treated 4L;C* mice, buffer-treated 4L;C* mice, and 4L normal mice at age of Day 55. Sagittal brain cryosections (8 um) were mounted on gelatin-coated slides, air-dried, and subjected to IHC staining using the BenchMark XT IHC/ISH staining module. For GFAP staining, the sections were incubated in buffer solution containing 0.1% trypsin for 5 minutes at room temperature. For morphometric analysis, hematoxylin-eosin co-staining was performed according to standard protocols. Endogenous peroxidase activity was quenched by incubation of the sections for 5 minutes with 3% hydrogen peroxide. Sections were incubated overnight at 4° C. in primary antibodies for GFAP rabbit polyclonal antibody. Staining was detected using biotin-labeled anti-rabbit secondary antibodies and streptavidin conjugated to horseradish peroxidase. Sections were examined with microscope using computer-assisted image analysis software.
The subject of assay [6] is 4L;C* mice. The experiment in a line: Lifespan (Kaplan-Meier survival) in 4L;C* nGD mouse model. The class given is in vivo. As to conditions: rapamycin 6 mg/kg i.p. every 2 days from 2 weeks of age, untreated 59 days, buffer 60 days. The source says: The 4L;C* mouse is a transgenic animal model that is viable and mimics neurological deficits analogous to subacute neuronopathic Gaucher disease (nGD). The 4L;C* mice used in this and other examples disclosed herein were generated as described in Sun et al., Hum Mol Genet. 2010 Mar. 15; 19(6): 1088-1097, the disclosure of which is incorporated herein in its entirety. In brief, saposin C deficient (C^−/−) mice were generated by introducing a Cys→Pro substitution in the saposin C region of prosaposin. […] Saposin C is an essential activator for GCase. GCase V394L (4L/4L) mice were generated by germ-line transmission of a missense point mutation in the GCase (GBA) locus encoding for V394L. Next, saposin C^−/− mice were cross-bred with point mutated GCase V394L homozygotes (4L/4L) to generate 4L/wt;C^−/+ mice. 4L;C* mice (4L/4L;C^−/−) were produced by intercrossing 4L/4L;C^+/− with 4L/4L;C^+/−. The strain background of 4L;C* was originally C57BL/6J/129SvEV and backcrossed into pure C57BL/6J strain for more than 12 generations.

As to `CO[C@H]1C[C@@H]2CC[C@@H](C)[C@@](O)(O2)C(=O)C(=O)N2CCCC[C@H]2C(=O)O[C@H]([C@H](C)C[C@@H]2CC[C@@H](O)[C@H](OC)C2)CC(=O)[C@H](C)/C=C(\C)[C@@H](O)[C@@H](OC)C(=O)[C@H](C)C[C@H](C)/C=C/C=C/C=C/1C` [rapamycin], in the assay on 4L;C* mice [1] (buffer-treated 1.9 fold), the “frequency of microglia (CD45intermediate CD11bhigh)” value was determined as 1.3 fold. Moreover, the “percentage of total CD45+ cells in brain” value in the assay with 4L;C* mice [1] (buffer-treated 2.2-) came to 1.4 fold. Moreover, in the assay with 4L;C* nBMT mice, the “Frequency of GFP+ cells among CD45+” value worked out at 2.87, the “Frequency of GFP+ cells among Lymphoid” value was 29.3, the “Frequency of GFP+ cells among Macrophage” value is on record as 19.5 and the “Frequency of GFP+ cells among Microglia” value was 1.56. Also, in the assay with 4L;C* nBMT mice, the “Frequency of GFP+ cells among Myeloid” value is recorded as 17.4 and the “Frequency of GFP+ cells among T Cell” value came out at 37.6. The “reduction of CD68+ area” value in the assay with 4L;C* mice [2] (all brain regions except cerebellar DCN, Day 55) is listed as 53-62%. Besides, in the assay on 4L;C* mice [2] (spinal cord), the “reduction of CD68 signals” value is given as 56%. The “CCL2 mRNA expression” value in the assay with inflammatory mediators (Day 55, buffer-treated 16.6-fold) is 9 fold. In addition, in the assay on inflammatory mediators (Day 55, compared to normal littermates, buffer-treated 47-fold), the “CCL5 mRNA expression” value was 23 fold. In the assay with 4L;C* mice [3], the “starting age for bodyweight to show significant difference from normal controls (4L;norm)” value came to 75 days. In addition, the “reduction of degenerating neuronal signals (FJC)” value with 4L;C* mice [4] is reported as 29-45%. Moreover, the “decrease of GFAP signal” value with 4L;C* mice [5] is reported as 36-74%. In the assay on 4L;C* mice [6], this compound returned a median survival of 82 days.
